Results reported in patent US20050014268A1, “Genetic transformation using a PARP inhibitor” (Bayer BioScience NV, priority 1995, published 2005).

System: Hypocotyl explants of Brassica napus
Experiment: Agrobacterium mediated transformation of oilseed rape hypocotyl explants with pTHW107, niacinamide for 4 days prior to infection
Type: cell-based
Description: Hypocotyl explants of Brassica napus were obtained, cultured and transformed essentially as described by De Block et al, 1989, Plant Physiol. 914:694-701 except for the following modifications: • hypocotyl explants were precultured for 3 days on A2 medium (MS, 0.5 g/l Mes (pH 5.7), 1.2% glucose, 0.5% agarose, 1 mg/l 2,4-D, 0.25 mg/l naphthalene acetic acid (NAA), 1 mg/l 6-benzylaminopurine (BAP)), and then transferred to the A2 medium with or without niacinamide for another 4 days. • infection medium A3 was MS, 0.5 g/l Mes (pH 5.7), 1.2% glucose, 0.1 mg/l NAA, 0.75 mg/l BAP, 0.01 mg/l giberellinic acid (GA3) • selection medium A5 was 0.5 g/l Mes (pH 5.7), 1.2% glucose, 40 mg/l adenine.SO4, 0.5 g/l polyvinyl-polypyrrolidone (PVP), 0.5% agarose, 0.1 mg/l NAA, 0.75 mg/l BAP, 0.01 mg/l GA3, 250 mg/l carbenicillin, 250 mg/l triacillin, 5 mg/l AgNO3. • regeneration medium A6 was MS, 0.5 g/l Mes (pH 5.7), 2% sucrose, 40 mg/l adenine.SO4, 0.5 g/l PVP, 0.5% agarose, 0.0025 mg/l BAP, 250 mg/l triacillin. • healthy shoots were transferred to 1 liter vessels containing rooting medium which was either A8 or A9; A8 consists of 100-130 ml half concentrated MS, 1% sucrose (pH 5.0), 1 mg/l isobutyric acid (IBA), 100 mg/l triacillin added to 300 ml perlite (final pH 6.2); A9 consists of half concentrated MS, 1.5% sucrose (pH 5.8) solidified with agar (0.6%)
Hypocotyl explants (with or without niacinamide treatment) were infected with Agrobacterium tumefaciens strain C58C1Rif carrying T-DNA vector pTHW107 and a helper Ti-plasmid pMP90 (Koncz and Schell, 1986, Mol.Gen.Genet. 204:383-396)(or a derivative thereof).
Plasmid pTHW107 is a vector carrying a T-DNA comprising the following chimeric genes: • PTA29-barnase-3′g7 • PSSU-bar-3′nos • in which PTA29 is the promoter of the TA29 gene of tobacco (EP 344029) and PSSU is the promoter of the gene of Arabidopsis thaliana encoding the small subunit of Rubisco. The complete sequence of the T-DNA of pTHW107 is presented in SEQ ID No 1.
Where required niacinamide (250 mg/l) was added to the media for the last 4 days prior to infection with Agrobacterium. […] Five plants regenerated from the calli obtained by transformation including niacinamide and five plants regenerated from the calli obtained by conventional transformation without niacinamide inclusion, were analyzed by Southern hybridization to determine the copy number of the transgenes, and were further analyzed for reproductive phenotype.

[1] = 250 mg/l niacinamide for the last 4 days prior to infection
[2] = Before 250, regenerated plants Id. No. 1-5

`NC(=O)c1cccnc1` [niacinamide] was tested, and the “copy number in plants regenerated from transformed calli” value [1] was “low copy number”, the “variation in the expression profile of the transgenes” value [1] was “less variation” and the “Phenotype of the F1-progeny (vegetative/reproductive)” value (Before 250, pollinated with untransformed N90-740, phosphinotricin resistant F1-progeny) was “normal/sterile”. The “Reproductive phenotype (male sterility)” value [2] was “sterile” and the Vegetative phenotype [2] was “normal”.
